Where two headings read alike, the source gives them in different places. Where a SMILES comes first, the peptide text is derived from it. Where no end group is shown, it is not given here. [ ]: non-standard residue; d: D form. pY = N[C@@H](Cc1ccc(OP(=O)(O)O)cc1)C(=O)O
Assays:
Caco-2 cell monolayers [1] = details: cited from earlier work
Description: Basolateral solutions were sampled every 15 min for 60 min and analyzed by LC–TOF/MS. […] Therefo ...

CBLB = tested on: CBLB; set-up: method as in 2 sources, ref 9 = [9]; PMID 26874193; doi:10.1016/j.abb.2016.02.014; 9. Ohno A Structural analysis of the TKB domain of ubiquitin ligase Cbl-b complexed with its small inhibitory peptide, Cblin Arch. Biochem. Biophys. 2016 594 1 7 10.1016/j.abb.2016.02.014 26874193 ||| ref 19 = [19]; PMID 23762056; doi:10.1155/2013/907565; 19. Abe T Soy glycinin contains a functional inhibitory sequence against muscle-atrophy-associated ubiquitin ligase Cbl-b Int. J. Endocrinol. 2013 2013 907565 907565 23762056 10.1155/2013/907565 PMC36; details: cited from earlier work
Excerpt: The amino acid sequence of Cblin pentapeptide was designed to inhibit interaction between CBLB and IRS1 proteins based on the ability of CBLB to recognize and bind to phosphorylated tyrosine. […] We previously elucidated the crystal structure of the TKB domain of CBLB complexed with C ...

[2] = Transport of Cblin pentapeptides across Caco-2 cell monolayers (apparent permeability); type: in vitro ADME; details: human; Caco-2 (C2BBe1) monolayers, apical to basolateral, apical HBSS pH 6.0 / basolateral HBSS pH 7.4, 1 mM peptide, 0.5% DMSO, 60 min, 37 °C, TEER >300 Ω·cm2, LC–TOF/MS, means ± SEM (n = 4–6)
Description: (§1) Cell culture and transport experiment were performed as described[24],[45]. Caco-2 cells were cultured using BD BioCoat Intestinal Epithelium Differentiation Environment kits (BD Bioscience, Franklin Lakes, NJ, USA). Caco-2 cells grown in 0.9 cm^2 Falcon cell culture inserts (polyethylene terephthalate membranes; pore size, 1.0 μm; Becton Dickinson and Co.) with a type I collagen-coated membrane (Cellmatrix type IA Collagen Gel Culturing Kit; Nitta Gelatin Inc., Osaka, Japan) were gently rinsed twice with Hanks balanced salt solution (HBSS; 137 mM NaCl, 5 mM KCl, 5.5 mM D-glucose, 4 mM NaHCO3, 0.75 mM NaHPO4·12H2O, 0.4 mM KH2PO4, 0.8 mM MgSO4·7H2O, and 1.26 mM CaCl2·2H2O, pH 6.0 adjusted with 10 mM 2-(N-morpholino)-ethanesulfonic acid). A portion (1.5 mL) of HBSS buffer (pH 6.0) was added to the apical side, and HBSS buffer (pH 7.4 adjusted with 10 mM N-2-hydroxyethylpiperazine-N′-2-ethanesulfonic acid) was added to the basolateral side. After equilibration for 15 min at 37 °C, the apical buffer was replaced with fresh HBSS (pH 6.0) containing 1 mM peptide and 0.5% DMSO. Portions (60 μL) of solutions were drawn from the apical or basolateral sides at 15, 30, 45, and 60 min to determine amounts of transported peptides. Monolayer integrity was evaluated by measuring TEER using a Millicell® ERS-2 Voltohmmeter (Merck KGaA, Darmstadt, Germany), and monolayers with a TEER of >300 Ω · cm^2 were included in the experiments. The apparent permeability coefficient (Papp, cm/s) was calculated as1 Pappcm/s=V/AC0×dC/dt where dC/dt is the change in concentration on the basolateral side over time (mM/s), V is the volume of solution in the basolateral compartment (1.5 mL), A is the surface area of the membrane (0.9 cm^2), and C0 is the initial concentration on the apical side (mM).
(§2) We investigated the involvement of PEPT1 in peptide transport by competition studies using 10 mM Gly-Sar, a PEPT1 substrate. We also investigated peptide transport over paracellular tight junctions by incubating monolayers with the tight junction opener, cytochalasin D (0.5 μg/mL) for 30 min[47] before evaluating transport.
(§3) Oligopeptides were separated at 40 °C using a linear gradient of 0.1% formic acid (FA) in MS grade water (solvent A) and 0.1% FA in acetonitrile (ACN) (solvent B) for 20 min at a flow rate of 0.2 mL/min, and an Agilent 1200 series HPLC system (Agilent Technologies Inc., Santa Clara, CA, USA) equipped with a Cosmosil 5C18-MS-II column (Φ 2.0 mm × 150 mm, Nacalai Tesque Inc., Kyoto, Japan). The MS conditions comprised: drying gas, N2; flow rate, 8.0 L/min; drying gas temperature, 200 °C; drying gas pressure, 1.6 bar; HV capillary voltage, −4500 V; capillary exit, 70.0 V; skimmer 1, 50.0 V; hexapole 1, 23.0 V; hexapole RF, 100.0 Vpp; skimmer 2, 23.0 V; lens 1 transfer, 52.0 μs, and mass range m/z 100–1000. A calibration solution of 10 mM sodium formate in 50% ACN was injected at the beginning of each run. Data were analyzed using Bruker Data Analysis version 3.2 software (Bruker, Billerica, MA, USA). Calibration curves were prepared using 0.1–10 μM standards.

Caco-2 cell monolayers [3] = assay: as above; type: in vitro ADME; details: LC–TOF/MS, n = 4–6; for Effect of Gly-Sar (PEPT1 substrate) on Papp: Caco-2, 1 mM peptide with 10 mM Gly-Sar, 60 min; for Papp in monolayers incubated with cytochalasin D vs untreated membranes: Caco-2, 1 mM peptide, pre-incubation with cytochalasin D 0.5 μg/mL for 30 min, transport 60 min
Description: as §1, §2, §3

Caco-2 cells = assay: Peptidase degradation and dephosphorylation during Caco-2 transport (fragment screening by LC-TOF/MS); type: in vitro ADME; details: for Resistance to peptidase degradation in Caco-2 cells: 1 mM peptide, 60 min, fragments screened by m/z, no other peptide fragments found (data not shown)
Description: as §1, with “After equilibration for 15 min at 37 °C, the apical buffer was replaced with fresh HBSS (pH 6.0) containing 1 mM peptide and 0.5% DMSO. Portions (60 μL) of solutions were drawn from the apical or basolateral sides at 15, 30, 45, and 60 min to determine amounts of transported peptides.” left out
Oligopeptides were separated at 40 °C using a linear gradient of 0.1% formic acid (FA) in MS grade water (solvent A) and 0.1% FA in acetonitrile (ACN) (solvent B) for 20 min at a flow rate of 0.2 mL/min, and an Agilent 1200 series HPLC system (Agilent Technologies Inc., Santa Clara, CA, USA) equipped with a Cosmosil 5C18-MS-II column (Φ 2.0 mm × 150 mm, Nacalai Tesque Inc., Kyoto, Japan). […] Data were analyzed using Bruker Data Analysis version 3.2 software (Bruker, Billerica, MA, USA). […]

[4] = Plasma pharmacokinetics after a single oral dose in rats; type: in vivo, Sprague-Dawley rats
[5] = LC-TOF/MS detection of CbR-derived peptides in serum and skeletal muscle of mice fed CbR; type: in vivo, Jcl:ICR mice; details: serum of mice fed CbR diet for 14 days
Description: as §3
31 Supplementary Figure 2. Analysis of serum collected from mice fed with Non-Tg or CbR using
33 Mice were handled as described in Methods. Briefly, 6-week-old male Jcl:ICR mice (Japan SLC
34 Inc., Shizuoka, Japan) were housed with access to a standard diet and water ad libitum. […]
42 specific for CbR group. ND, not detected. […]
60 analyzed by LC-TOF/MS under conditions described in Methods. […]
61 those of possible metabolites. […] ND, not detected.

[6] = rat, single p.o. 50 mg/kg BW, n = 1
[7] = rat, single p.o. 200 mg/kg BW, n = 1

Gly-Sar-Sar-Sar-Sar [pentapeptide transport model with methylated peptide bonds]
Papp (Caco-2 cell monolayers [1]): 8.6 ± 0.6^a,* ×10^−7 cm/s
Papp, as given in text (Caco-2 cell monolayers [1]): 8.6 ×10^−7 cm/s

Asp-Ile-Tyr-Asn-Pro [modified Cblin peptide (Cblin-like peptide from soy glycinin) with non-phosphorylated tyrosine]
Effect on CBLB-mediated IRS1 ubiquitination (CBLB): suppresses

CSCC[C@H](NC(=O)[C@H](Cc1ccc(OP(=O)(O)O)cc1)NC(=O)CNC(=O)[C@@H](N)CC(=O)O)C(=O)N1CCC[C@H]1C(=O)O [Asp-Gly-pTyr-Met-Pro] (H-DG[pY]MP-OH)
Papp A→B at 60 min, 1 mM [2]: 0.35 ± 0.12 ×10⁻⁶ cm/s
Effect of Gly-Sar (PEPT1 substrate) on Papp (Caco-2 cell monolayers [3]): not affected
Papp in monolayers incubated with cytochalasin D vs untreated membranes (Caco-2 cell monolayers [3]): significantly higher
Resistance to peptidase degradation in Caco-2 cells (Caco-2 cells): resistant to peptidase degradation
Dephosphorylation during Caco-2 transport (Caco-2 cells; basolateral solution after 60 min, Asp-Gly-Tyr-Met-Pro found at an estimated concentration similar to the intact peptide): dephosphorylated

Gly-[pY]-Met
Effect on CBLB-mediated ubiquitination of IRS1 (CBLB; in vitro): suppressive effect

CSCC[C@H](NC(=O)[C@H](Cc1ccc(O)cc1)NC(=O)CNC(=O)[C@@H](N)CC(=O)O)C(=O)N1CCC[C@H]1C(=O)O [Asp-Gly-Tyr-Met-Pro] (H-DGYMP-OH)
Papp A→B at 60 min, 1 mM [2]: 0.7 ± 0.08 ×10⁻⁶ cm/s
Effect of Gly-Sar (PEPT1 substrate) on Papp (Caco-2 cell monolayers [3]): not affected
Papp in monolayers incubated with cytochalasin D vs untreated membranes (Caco-2 cell monolayers [3]): significantly higher
Resistance to peptidase degradation in Caco-2 cells (Caco-2 cells): resistant to peptidase degradation
half-life ([4]; male, Sprague-Dawley, plasma, po, rat, p.o. 100 mg/kg BW, elimination half-life, n = 5): 28 min
tmax ([4]; male, Sprague-Dawley, plasma, po, rat, p.o. 100 mg/kg BW, n = 5, read-out: tmax (converted)): 15 min
Metabolites found in rat plasma ([4]; p.o. 100 mg/kg BW, plasma 30 min after administration, screened by m/z): Gly-Tyr-Met-Pro and Met-Pro
Cmax ([4]; rat, p.o. 100 mg/kg BW, fasted 16 h, LC–TOF/MS with isotope-labelled internal standard, means ± SEM (n = 5)): 2.78 ± 0.17 pmol/mL plasma
AUC0–60 min [4, 6]: 14.61 pmol ∙ min/mL plasma
Cmax [4, 6]: 0.79 pmol/mL plasma
t1/2 [4, 6]: 8.99 min
tmax [4, 6]: 10 min
AUC0–60 min [4, 7]: 648.91 pmol ∙ min/mL plasma
Cmax [4, 7]: 27.25 pmol/mL plasma
t1/2 [4, 7]: 5.58 min
tmax [4, 7]: 30 min

CSCC[C@H](NC(=O)[C@H](Cc1ccc(O)cc1)NC(=O)CNC(=O)[C@H](CC(=O)O)NC(=O)[C@@H](N)CCC(N)=O)C(=O)N1CCC[C@H]1C(=O)N[C@@H](Cc1c[nH]c2ccccc12)C(=O)O [Gln-Asp-Gly-Tyr-Met-Pro-Trp] (H-QDGYMPW-OH)
Uptake of intact heptapeptide into serum [5]: undetectable

— article PMC8429733, “Oral intake of rice overexpressing ubiquitin ligase inhibitory pentapeptide prevents atrophy in denervated skeletal muscle” (NPJ Science of Food, 2021)
